SMILES strings stand for the structures.

The record followed here is patent US20240041715A1, “PROCESS FOR TREATING HUMAN PERSPIRATION AND BODY ODORS USING MAGNESIUM OXIDE AND A PHOSPHATE SALT” (L' OREAL, priority 2020, published 2024).

The experiment can be described thus: in vitro "sniff test" model of deodorant effectiveness using human sweat incubated at 37° C. The following applies: average odor intensity rating, scores from 1=weak odor to 8=very strong odor, single ingredient. Here is the method:
The deodorant effectiveness of different KH2PO4/MgO mixtures at different molar ratios was studied in vitro in a “sniff test” model using human sweat incubated at 37° C.

The molecule `O=P([O-])(O)O.[K+]` [KH2PO4, potassium dihydrogen phosphate] returned an Odor intensity of 8. Next, `[O]=[Mg]` [MgO, magnesium oxide]: 1.
